Reference: patent US7235379B2, “Method and medium for the detection/identification of microorgranisms with esterase activity” (Bio Merieux, priority 2000, dated 2007)
“And” between values parts separate entries of the source, which are not always exact repeats. Identical values can stand only once. Like-named read-outs stand apart in the source and are kept apart here.

Columns and labels:
Type in all cases: cell-based
[1] = tested on: Salmonella enteritidis 006; assay: Ex.4 colony coloration, 5-bromo-3-indolyl nonanoate, DMSO/Tween 20, MacConkey
Escherichia coli 002 = assay: as above; design: key: —: absence of colour or intensity
Salmonella arizonae 018 = assay: as above; as to intensity of coloration: key: 0: no activity; 0.1: trace of coloration; 0.5: very pale coloration; 1: distinct coloration of low intensity; 2: clear coloration of medium intensity; 3: intense coloration; 4: very intense coloration
Hafnia alvei 025 = assay: as above; design: key: —: absence of colour or intensity
[2] = tested on: bacterial species exhibiting esterase activity; assay: Ex.4 overall conclusion, colony coloration; details: experimental conditions of Example 4
From the text: This medium is then separated into eight portions.

Salmonella spp. 017 = assay: Ex.4 colony coloration, 5-bromo-3-indolyl nonanoate, DMSO/Tween 20, MacConkey; design: key to color: —: absence of colour or intensity
Method: The esterase substrate tested is 5-bromo-3-indolyl nonanoate. A 40 g/l stock solution of substrate is prepared in a mixture of 40% dimethyl sulfoxide and 60% Tween 20. A sufficient volume is added to a supercooled MacConkey medium (without neutral red) to give a substrate concentration of 500 mg/l.
This medium is then separated into eight portions. […] Microorganisms originating from the Applicant's collection were inoculated onto this medium from a 0.5 McFarland suspension by isolation in three quadrants. The dishes were incubated at 37° C. for 48 hours. The colonies formed were examined visually after 24 and 48 hours of incubation. The coloration of these colonies and the intensity of this coloration were noted.

Salmonella typhi 118 = tested on: Salmonella typhi 118; as to intensity of coloration: key: 0: no activity; 0.1: trace of coloration; 0.5: very pale coloration; 1: distinct coloration of low intensity; 2: clear coloration of medium intensity; 3: intense coloration; 4: very intense coloration

Molecule: CCCCC(CC)COS(=O)(=O)[O-].[Na+] (centres unmarked) [Tergitol 8]
- color ([1]; 2 ml/l Tergitol 8, 24 h): gray
- intensity of coloration ([1]; 2 ml/l Tergitol 8, 24 h): 3
- color ([1]; 2 ml/l Tergitol 8, 48 h): gray
- intensity of coloration ([1]; 2 ml/l Tergitol 8, 48 h): 4
- color ([1]; 4 ml/l Tergitol 8, 24 h): gray
- intensity of coloration ([1]; 4 ml/l Tergitol 8, 24 h): 2.5
- color ([1]; 4 ml/l Tergitol 8, 48 h): gray
- intensity of coloration ([1]; 4 ml/l Tergitol 8, 48 h): 3
- color ([1]; 8 ml/l Tergitol 8, 24 h): gray
- intensity of coloration ([1]; 8 ml/l Tergitol 8, 24 h): 3
- color ([1]; 8 ml/l Tergitol 8, 48 h): gray
- intensity of coloration ([1]; 8 ml/l Tergitol 8, 48 h): 3.5
- color (Escherichia coli 002; 2 ml/l Tergitol 8, 24 h): —
- color (Escherichia coli 002; 2 ml/l Tergitol 8, 48 h): —
- color (Escherichia coli 002; 4 ml/l Tergitol 8, 24 h): —
- color (Escherichia coli 002; 4 ml/l Tergitol 8, 48 h): —
- color (Escherichia coli 002; 8 ml/l Tergitol 8, 24 h): —
- color (Escherichia coli 002; 8 ml/l Tergitol 8, 48 h): —
- color (Salmonella arizonae 018; 2 ml/l Tergitol 8, 24 h): gray
- intensity of coloration (Salmonella arizonae 018; 2 ml/l Tergitol 8, 24 h): 2
- color (Salmonella arizonae 018; 2 ml/l Tergitol 8, 48 h): gray
- intensity of coloration (Salmonella arizonae 018; 2 ml/l Tergitol 8, 48 h): 4
- color (Salmonella arizonae 018; 4 ml/l Tergitol 8, 24 h): gray
- intensity of coloration (Salmonella arizonae 018; 4 ml/l Tergitol 8, 24 h): 2
- color (Salmonella arizonae 018; 4 ml/l Tergitol 8, 48 h): gray
- intensity of coloration (Salmonella arizonae 018; 4 ml/l Tergitol 8, 48 h): 2.5
- color (Salmonella arizonae 018; 8 ml/l Tergitol 8, 24 h): gray
- intensity of coloration (Salmonella arizonae 018; 8 ml/l Tergitol 8, 24 h): 2
- color (Salmonella arizonae 018; 8 ml/l Tergitol 8, 48 h): gray
- intensity of coloration (Salmonella arizonae 018; 8 ml/l Tergitol 8, 48 h): 2.5
- color (Hafnia alvei 025; 2 ml/l Tergitol 8, 24 h): —
- color (Hafnia alvei 025; 2 ml/l Tergitol 8, 48 h): —
- color (Hafnia alvei 025; 4 ml/l Tergitol 8, 24 h): —
- color (Hafnia alvei 025; 4 ml/l Tergitol 8, 48 h): —
- color (Hafnia alvei 025; 8 ml/l Tergitol 8, 24 h): —
- color (Hafnia alvei 025; 8 ml/l Tergitol 8, 48 h): —
- effect on the esterase activity compared with Tergitol 4 [2]: not as pronounced as that observed with Tergitol 4
- color (Salmonella spp. 017; 2 ml/l Tergitol 8, 24 h): gray
- intensity of coloration (Salmonella spp. 017; 2 ml/l Tergitol 8, 24 h): 0.5
- color (Salmonella spp. 017; 2 ml/l Tergitol 8, 48 h): gray
- intensity of coloration (Salmonella spp. 017; 2 ml/l Tergitol 8, 48 h): 1.5
- color (Salmonella spp. 017; 4 ml/l Tergitol 8, 24 h): gray
- intensity of coloration (Salmonella spp. 017; 4 ml/l Tergitol 8, 24 h): 0.3
- color (Salmonella spp. 017; 4 ml/l Tergitol 8, 48 h): gray
- intensity of coloration (Salmonella spp. 017; 4 ml/l Tergitol 8, 48 h): 1
- color (Salmonella spp. 017; 8 ml/l Tergitol 8, 24 h): —
- color (Salmonella spp. 017; 8 ml/l Tergitol 8, 48 h): gray
- intensity of coloration (Salmonella spp. 017; 8 ml/l Tergitol 8, 48 h): 0.5
- color (Salmonella typhi 118): gray
- intensity of coloration (Salmonella typhi 118): 1 and 1.5 and 2

Molecule: polyethylene glycol mono-p-isooctylphenyl ether [Triton X100]
- color ([1]; 8 ml/l Triton X100, 24 h): gray
- intensity of coloration ([1]; 8 ml/l Triton X100, 24 h): 2
- color ([1]; 8 ml/l Triton X100, 48 h): gray
- intensity of coloration ([1]; 8 ml/l Triton X100, 48 h): 2.5
- color ([1]; 16 ml/l Triton X100, 24 h): gray
- intensity of coloration ([1]; 16 ml/l Triton X100, 24 h): 2
- color ([1]; 16 ml/l Triton X100, 48 h): gray
- intensity of coloration ([1]; 16 ml/l Triton X100, 48 h): 2.5
- color ([1]; 32 ml/l Triton X100, 24 h): gray
- intensity of coloration ([1]; 32 ml/l Triton X100, 24 h): 1
- color ([1]; 32 ml/l Triton X100, 48 h): gray
- intensity of coloration ([1]; 32 ml/l Triton X100, 48 h): 1.5
- color (Escherichia coli 002; 8 ml/l Triton X100, 24 h): —
- color (Escherichia coli 002; 8 ml/l Triton X100, 48 h): —
- color (Escherichia coli 002; 16 ml/l Triton X100, 24 h): —
- color (Escherichia coli 002; 16 ml/l Triton X100, 48 h): —
- color (Escherichia coli 002; 32 ml/l Triton X100, 24 h): —
- color (Escherichia coli 002; 32 ml/l Triton X100, 48 h): —
- color (Salmonella arizonae 018; 8 ml/l Triton X100, 24 h): gray
- intensity of coloration (Salmonella arizonae 018; 8 ml/l Triton X100, 24 h): 2
- color (Salmonella arizonae 018; 8 ml/l Triton X100, 48 h): gray
- intensity of coloration (Salmonella arizonae 018; 8 ml/l Triton X100, 48 h): 2.5
- color (Salmonella arizonae 018; 16 ml/l Triton X100, 24 h): gray
- intensity of coloration (Salmonella arizonae 018; 16 ml/l Triton X100, 24 h): 2
- color (Salmonella arizonae 018; 16 ml/l Triton X100, 48 h): gray
- intensity of coloration (Salmonella arizonae 018; 16 ml/l Triton X100, 48 h): 2.5
- color (Salmonella arizonae 018; 32 ml/l Triton X100, 24 h): gray
- intensity of coloration (Salmonella arizonae 018; 32 ml/l Triton X100, 24 h): 1
- color (Salmonella arizonae 018; 32 ml/l Triton X100, 48 h): gray
- intensity of coloration (Salmonella arizonae 018; 32 ml/l Triton X100, 48 h): 2
- color (Hafnia alvei 025; 8 ml/l Triton X100, 24 h): —
- color (Hafnia alvei 025; 8 ml/l Triton X100, 48 h): —
- color (Hafnia alvei 025; 16 ml/l Triton X100, 24 h): —
- color (Hafnia alvei 025; 16 ml/l Triton X100, 48 h): —
- color (Hafnia alvei 025; 32 ml/l Triton X100, 24 h): —
- color (Hafnia alvei 025; 32 ml/l Triton X100, 48 h): —
- effect on the esterase activity compared with Tergitol 4 [2]: not as pronounced as that observed with Tergitol 4
- color (Salmonella spp. 017; 8 ml/l Triton X100, 24 h): gray
- intensity of coloration (Salmonella spp. 017; 8 ml/l Triton X100, 24 h): 1
- color (Salmonella spp. 017; 8 ml/l Triton X100, 48 h): gray
- intensity of coloration (Salmonella spp. 017; 8 ml/l Triton X100, 48 h): 3
- color (Salmonella spp. 017; 16 ml/l Triton X100, 24 h): gray
- intensity of coloration (Salmonella spp. 017; 16 ml/l Triton X100, 24 h): 0.5
- color (Salmonella spp. 017; 16 ml/l Triton X100, 48 h): gray
- intensity of coloration (Salmonella spp. 017; 16 ml/l Triton X100, 48 h): 2
- color (Salmonella spp. 017; 32 ml/l Triton X100, 24 h): —
- color (Salmonella spp. 017; 32 ml/l Triton X100, 48 h): gray
- intensity of coloration (Salmonella spp. 017; 32 ml/l Triton X100, 48 h): 0.5
- color (Salmonella typhi 118; 8 ml/l Triton X100, 24 h): gray
- intensity of coloration (Salmonella typhi 118; 8 ml/l Triton X100, 24 h): 1
- color (Salmonella typhi 118; 8 ml/l Triton X100, 48 h): gray
- intensity of coloration (Salmonella typhi 118; 8 ml/l Triton X100, 48 h): 1
- color (Salmonella typhi 118; 16 ml/l Triton X100, 24 h): gray
- intensity of coloration (Salmonella typhi 118; 16 ml/l Triton X100, 24 h): 1
- color (Salmonella typhi 118; 16 ml/l Triton X100, 48 h): gray
- intensity of coloration (Salmonella typhi 118; 16 ml/l Triton X100, 48 h): 1
- color (Salmonella typhi 118; 32 ml/l Triton X100, 24 h): gray
- intensity of coloration (Salmonella typhi 118; 32 ml/l Triton X100, 24 h): 0.5
- color (Salmonella typhi 118; 32 ml/l Triton X100, 48 h): gray
- intensity of coloration (Salmonella typhi 118; 32 ml/l Triton X100, 48 h): 0.5
